Key:
[1] = test system: HepG2 cells (hepatocellular carcinoma); assay: MTT cytotoxicity assay, HepG2; assay type: cell-based; details: Homo sapiens, HepG2, 24 h, 24 h treatment, read-out: In Vitro Cytotoxicity IC50 HepG2
Source text: (§1) The in vitro cytotoxicity for the final target compounds, 4(a–d), 5(a–f), and 6(a–b), was preliminarily evaluated via the MTT colorimetric assay against a panel of four human cell lines, namely, the hepatocellular carcinoma (HepG2), mammary gland (MCF-7), breast cancer (MDA-MB-231) and epithelioid cervix carcinoma (HeLa).
(§2) The cytotoxicity of the target hybrids was examined by an MTT assay against HepG2, HeLa, MCF-7, and MDA-MB-231. At first, the RPMI-1640 medium with 10% fetal bovine serum was used to cultivate the cell lines. Then, antibiotics (penicillin (100 units/mL) and streptomycin (100 µg/mL)) were added in a 37 °C incubator in 5% CO2. The cell lines were seeded in a 96-well plate at a density of 1.0 × 10^4 cells/well at 37 °C under 5% CO2 for 48 h. After incubation, the cells were treated with various concentrations of the synthesized compounds and incubated for an additional 24 h. Following the drug treatment, 20 µL of 5 mg/mL MTT solution was added and incubated for 4 h. To dissolve the purple formazan that had formed, 100 µL dimethyl sulfoxide (DMSO) was added to each well. At a wavelength of 570 nm, the colorimetric assay was recorded and measured, using a plate reader BioTek EXL 800 (Agilent Technologies, Inc., Santa Clara, CA, USA). The percentage of relative cell viability was counted using the following formula (A570 of handled specimens/A570 of the unhandled specimen), multiplied by 100. The results of the cytotoxicity value were presented as the median growth inhibitory concentration (IC50) of the reagents compared to the control.

[2] = test system: MCF-7 cells (mammary gland cancer); assay: MTT cytotoxicity assay, MCF-7; assay type: cell-based; details: Homo sapiens, MCF7, 24 h treatment, read-out: In Vitro Cytotoxicity IC50 MCF-7
Protocol: (§3) After incubation, the cells were treated with various concentrations of the synthesized compounds and incubated for an additional 24 h. Following the drug treatment, 20 µL of 5 mg/mL MTT solution was added and incubated for 4 h. To dissolve the purple formazan that had formed, 100 µL dimethyl sulfoxide (DMSO) was added to each well. […] The percentage of relative cell viability was counted using the following formula (A570 of handled specimens/A570 of the unhandled specimen), multiplied by 100.

[3] = test system: MDA-MB-231 cells (breast cancer); assay: MTT cytotoxicity assay, MDA-MB-231; assay type: cell-based; details: Homo sapiens, 24 h treatment, read-out: In Vitro Cytotoxicity IC50 MDA-MB-231
Protocol: as §3

[4] = test system: HeLa cells (epithelioid cervix carcinoma); assay: MTT cytotoxicity assay, HeLa; assay type: cell-based; details: Homo sapiens, 24 h treatment, read-out: In Vitro Cytotoxicity IC50 Hela
Protocol: as §3

[5] = test system: HepG2, MCF-7, MDA-MB-231 and HeLa cell lines; assay: MTT cytotoxicity assay, panel of four cell lines; assay type: cell-based; details: Homo sapiens, range over HepG2, MCF-7, MDA-MB-231, HeLa, read-out: IC50 values, range over the tested cell lines
Source text: as §1, §2

| SMILES | melting point [°C] | IC50 [1] [µM] | IC50 [2] [µM] | IC50 [3] [µM] | IC50 [4] [µM] | IC50 [5] [µM] |
| --- | --- | --- | --- | --- | --- | --- |
| O=C(CSc1nc2ccccc2o1)NN=Cc1ccc(Cl)c(Cl)c1 (mixture of isomers) [Compound 4a, (E/Z)-N′-(3,4-dichlorobenzylidene)-2-(benzo[d]oxazol-2-ylthio)acetohydrazide] | 193 to 195 | 81.2 ± 3.7 | 74.2 ± 3.5 | 75.5 ± 3.6 | 67.6 ± 3.4 | – |
| O=C(CSc1nc2ccccc2o1)NN=Cc1ccc(OC(F)(F)F)cc1 (mixture of isomers) [Compound 4b, (E/Z)-N′-(4-(trifluoromethoxy)benzylidene)-2-(benzo[d]oxazol-2-ylthio)acetohydrazide] | 154 to 156 | 13.1 ± 1.1 | 15.2 ± 1.2 | 9.72 ± 0.7 | 19.3 ± 1.6 | – |
| N#Cc1ccc(C=NNC(=O)CSc2nc3ccccc3o2)cc1 (mixture of isomers) [Compound 4c, (E/Z)-N′-(4-cyanobenzylidene)-2-(benzo[d]oxazol-2-ylthio)acetohydrazide] | 246 to 248 | 34.5 ± 2.2 | 38.6 ± 2.5 | 21.1 ± 1.6 | 35.2 ± 2.5 | – |
| COc1cc(C=NNC(=O)CSc2nc3ccccc3o2)ccc1O (mixture of isomers) [Compound 4d, (E/Z)-N′-(4-hydroxy-3-methoxybenzylidene)-2-(benzo[d]oxazol-2-ylthio)acetohydrazide] | 150 to 153 | 9.37 ± 0.7 | 11.1 ± 0.9 | 4.93 ± 0.2 | 12.9 ± 0.9 | 2.14 to 12.9 |

Second part, led by results:

| melting point [°C] | SMILES | IC50 [1] [µM] | IC50 [2] [µM] | IC50 [3] [µM] | IC50 [4] [µM] | IC50 [5] [µM] |
| --- | --- | --- | --- | --- | --- | --- |
| 218 to 221 | O=C(CSc1nc2ccccc2o1)NN=Cc1cccs1 (mixture of isomers) [Compound 6a, (E/Z)-2-(benzo[d]oxazol-2-ylthio)-N′-((thiophen-2-yl)methylene)acetohydrazide] | 26.4 ± 1.8 | 42.9 ± 2.8 | 30.8 ± 2.2 | 46.4 ± 2.7 | – |
| 223 to 225 | O=C(CSc1nc2ccccc2o1)NN=C1C(=O)Nc2ccccc21 [Compound 5a, (E/Z)-2-(benzo[d]oxazol-2-ylthio)-N′-(2-oxoindolin-3-ylidene)acetohydrazide] | 18 ± 1.3 | 23.5 ± 1.8 | 14.6 ± 1.2 | 28.9 ± 2 | – |
| 230 to 233 | Cc1ccc2c(c1)C(=NNC(=O)CSc1nc3ccccc3o1)C(=O)N2 [Compound 5b, (E/Z)-2-(benzo[d]oxazol-2-ylthio)-N′-(5-methyl-2-oxoindolin-3-ylidene)acetohydrazide] | 41.7 ± 2.4 | 27.4 ± 2 | 36.2 ± 2.4 | 31.5 ± 2.3 | – |
| 165 to 167 | O=C(CSc1nc2ccccc2o1)NN=C1C(=O)Nc2ccc([N+](=O)[O-])cc21 [Compound 5c, (E/Z)-2-(benzo[d]oxazol-2-ylthio)-N′-(5-nitro-2-oxoindolin-3-ylidene)acetohydrazide] | 56.2 ± 2.9 | 48.3 ± 2.8 | 62.4 ± 3.1 | 50.6 ± 2.9 | – |
| 145 to 147 | COc1ccc2c(c1)C(=NNC(=O)CSc1nc3ccccc3o1)C(=O)N2 [Compound 5d, (E/Z)-2-(benzo[d]oxazol-2-ylthio)-N′-(5-methoxy-2-oxoindolin-3-ylidene)acetohydrazide] | 10.5 ± 0.9 | 7.58 ± 0.6 | 8.44 ± 0.6 | 6.27 ± 0.7 | 2.14 to 12.9 |
| 264 to 267 | O=C(CSc1nc2ccccc2o1)NN=C1C(=O)Nc2ccc(Cl)cc21 [Compound 5e, (E/Z)-2-(benzo[d]oxazol-2-ylthio)-N′-(5-chloro-2-oxoindolin-3-ylidene)acetohydrazide] | 45.2 ± 2.7 | 53 ± 3.1 | 51.5 ± 2.8 | 58.4 ± 3.2 | – |
| 225 to 227 | O=C(CSc1nc2ccccc2o1)NN=C1C(=O)Nc2ccc(F)cc21 [Compound 5f, (E/Z)-2-(benzo[d]oxazol-2-ylthio)-N′-(5-fluoro-2-oxoindolin-3-ylidene)acetohydrazide] | 63.7 ± 3.2 | 70.3 ± 3.3 | 68.1 ± 3.5 | 59.2 ± 3.1 | – |

Reference: paper PMC9863562, “Design, Synthesis, and Biological Evaluation of 2-Mercaptobenzoxazole Derivatives as Potential Multi-Kinase Inhibitors” (Pharmaceuticals, 2023)
